{"source": "BindingDB's records for doi:10.1021/jm051064t", "about": "(P. Angeletti S.P.A. (Merck Research Laboratories), 2006)", "assay": "Inhibition of replication of HCV 1b BK RNA in Huh7 cells"}
{"smiles": "O=C(NCc1ccccc1Cl)Nc1ccsc1-c1nc(C(=O)O)c(O)c(=O)[nH]1", "note": "[2-(3-(3-(2-chlorobenzyl)ureido)thiophen-2-yl)-5,6-dihydroxypyrimidine-4-carboxylic acid]", "values": [{"measurement": "EC50", "value": 3.1, "unit": "µM"}]}
